Experiments:
[1] = system: LNCaP; assay: CCK-8 cytotoxicity assay, LNCaP; format: cell-based, human; conditions: for IC50: Homo sapiens, LNCaP cells, CCK-8, 24 h, mean ± SD of three experiments
Method: (§1) Cell proliferation was measured using the CCK-8 assay kit ([Kaspers et al., 1997]; [Kaspers et al., 1998]; [Ding et al., 2010]). Cells were seeded into 96-well plates (>5*10^4) with approximately 100 ul of cell suspension per well and incubated in 37°C incubator for 4 h. Various concentrations of the compounds were then added and incubated for a further 24 h in a 37°C incubator. Finally, 10 ul CCK8 was added and incubated for 0.5–4 h, absorbance at 450 nm was determined. ([Guo et al., 2021]; [He et al., 2022a]; [Hu et al., 2022]).
(§2) The in vitro cytotoxic activity results of the synthesized derivatives 3–17 against human prostate cancer lines (PC-3, LNCaP, and DU145) and the human prostate epithelial cell line (WPMY-1) were evaluated, as shown in Table 1.

[2] = system: PC-3; assay: CCK-8 cytotoxicity assay, PC-3; format: cell-based, human; conditions: for IC50: Homo sapiens, PC-3 cells, CCK-8, 24 h, mean ± SD of three experiments
Method: as §1, §2

[3] = target: T1, AR (Homo sapiens, UniProt P10275); assay: AR reporter gene (luciferase) assay; format: cell-based; conditions: read-out: AR antagonistic activity % (10 μM)
T1 sequence (P10275 1-920): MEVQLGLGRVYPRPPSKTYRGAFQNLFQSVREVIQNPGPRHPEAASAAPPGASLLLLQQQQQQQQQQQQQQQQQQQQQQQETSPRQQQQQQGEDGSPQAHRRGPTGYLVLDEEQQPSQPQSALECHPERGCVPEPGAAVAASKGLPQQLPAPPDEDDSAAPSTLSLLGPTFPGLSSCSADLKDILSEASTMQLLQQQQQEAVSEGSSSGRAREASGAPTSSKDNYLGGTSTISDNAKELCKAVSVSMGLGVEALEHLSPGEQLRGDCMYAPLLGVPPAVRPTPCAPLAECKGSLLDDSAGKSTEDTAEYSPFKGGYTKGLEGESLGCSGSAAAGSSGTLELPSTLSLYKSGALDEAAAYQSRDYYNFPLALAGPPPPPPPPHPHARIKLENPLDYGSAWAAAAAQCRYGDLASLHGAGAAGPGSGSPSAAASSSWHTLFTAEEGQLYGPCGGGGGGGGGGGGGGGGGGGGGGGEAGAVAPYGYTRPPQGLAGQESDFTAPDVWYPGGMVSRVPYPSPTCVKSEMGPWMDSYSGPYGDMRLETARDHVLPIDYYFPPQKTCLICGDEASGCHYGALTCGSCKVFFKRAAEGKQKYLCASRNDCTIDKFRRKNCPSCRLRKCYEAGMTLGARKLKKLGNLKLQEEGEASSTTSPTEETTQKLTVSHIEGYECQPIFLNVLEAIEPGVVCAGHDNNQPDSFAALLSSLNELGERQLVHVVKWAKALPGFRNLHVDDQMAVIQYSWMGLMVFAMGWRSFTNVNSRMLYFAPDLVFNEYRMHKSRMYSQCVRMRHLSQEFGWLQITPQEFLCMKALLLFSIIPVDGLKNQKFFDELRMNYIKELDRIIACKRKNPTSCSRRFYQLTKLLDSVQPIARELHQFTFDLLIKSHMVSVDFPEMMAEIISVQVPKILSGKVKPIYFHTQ
Method: Firefly and Renilla luciferase activities, were determined using the Dual-Glo™luciferase assay kit. RLUs were determined using the GloMax®96-Microplate Luminometer.

[4] = system: DU145; assay: CCK-8 cytotoxicity assay, DU145; format: cell-based, human; conditions: for IC50: Homo sapiens, DU-145, DU145 cells, CCK-8, 24 h, mean ± SD of three experiments
Method: as §1, §2

[5] = system: WPMY-1; assay: CCK-8 cytotoxicity assay, WPMY-1 normal prostate epithelial cells; format: cell-based; conditions: WPMY-1 normal human prostate epithelial cells, CCK-8, 24 h; mean ± SD of three experiments
Method: as §1, §2

SMILES | IC50 [1] [µM] | IC50 [2] [µM] | melting point [°C] | inhibition at 10 µM [3] [%] | IC50 [4] [µM] | IC50 [5] [µM] | cytotoxic activity against LNCaP cells (in words) [1] | cytotoxic activity against PC-3 cells (in words) [2] | cytotoxic activity against DU145 cells (in words) [4]
OCCc1ccc(CN2CCN(C(c3ccc(Cl)cc3)c3ccc(Cl)cc3)CC2)cc1 [Compound 10, 2-(4-((4-(bis(4-chlorophenyl)methyl)piperazin-1-yl)methyl)phenyl)ethan-1-ol] | 7.14 ± 0.29 | 15.24 ± 0.14 | 127 to 128 | 20.47 ± 0.18 | 10.8 ± 1.14 | > 50 | – | – | –
CC(C)(C)NC(=O)[C@H]1CC[C@H]2[C@@H]3CC[C@H]4NC(=O)C=C[C@]4(C)[C@H]3CC[C@]12C [Finasteride, reference compound] | 13.5 | 17.8 | – | – | 14.6 | – | – | – | –
OCCc1ccc(CN2CCN(Cc3ccc(F)cc3)CC2)cc1 [Compound 15, 2-(4-((4-(4-fluorobenzyl)piperazin-1-yl)methyl)phenyl)ethan-1-ol] | 18.45 ± 0.16 | 10.5 ± 1.14 | 114 to 115 | 64.35 ± 0.17 | 16.2 ± 0.62 | > 50 | – | – | –
OCCc1ccc(CN2CCN(C(c3ccc(F)cc3)c3ccc(F)cc3)CC2)cc1 [Compound 8, 2-(4-((4-(bis(4-fluorophenyl)methyl)piperazin-1-yl)methyl)phenyl)ethanol] | 4.92 ± 0.29 | 10.12 ± 0.08 | 133 to 134 | 25.2 ± 0.71 | 12.3 ± 0.16 | 35.53 ± 0.13 | – | – | –
OCCc1ccc(CN2CCN(C3c4ccccc4Sc4ccccc43)CC2)cc1 [Compound 17, 2-(4-((4-(9H-thioxanthen-9-yl)piperazin-1-yl)methyl)phenyl)ethan-1-ol] | 5.61 ± 0.86 | 6.42 ± 0.52 | 121 to 122 | 36.5 ± 0.79 | 8.35 ± 0.28 | > 50 | – | – | –
OCCc1ccc(CN2CCN(C(c3ccccc3)c3ccccc3)CC2)cc1 [Compound 3, 2-(4-((4-benzhydrylpiperazin-1-yl)methyl)phenyl)ethan-1-ol] | 6.14 ± 0.58 | 8.13 ± 0.12 | 122 to 123 | 40.17 ± 0.24 | 11.1 ± 0.76 | > 50 | – | – | –
COc1ccc(C(c2ccccc2)N2CCN(Cc3ccc(CCO)cc3)CC2)cc1 (stereo not drawn) [Compound 6, 2-(4-((4-((4-methoxyphenyl)(phenyl)methyl)piperazin-1-yl)methyl)phenyl)ethan-1-ol] | 6.17 ± 1.02 | 3.15 ± 0.48 | 116 to 117 | 30.75 ± 0.17 | 2.17 ± 0.72 | > 50 | strong cytotoxic activities | strong cytotoxic activities | strong cytotoxic activities
OCCc1ccc(CN2CCN(C(c3ccccc3)c3ccc(Cl)cc3)CC2)cc1 (stereo not drawn) [Compound 9, 2-(4-((4-((4-chlorophenyl)(phenyl)methyl)piperazin-1-yl)methyl)phenyl)ethanol] | 4.13 ± 0.06 | 1.53 ± 0.16 | 130 to 131 | 28.42 ± 0.25 | 7.63 ± 0.12 | > 50 | strong cytotoxic activities | strong cytotoxic activities | strong cytotoxic activities
Cc1ccc(C(c2ccccc2)N2CCN(Cc3ccc(CCO)cc3)CC2)cc1 (stereo not drawn) [Compound 4, 2-(4-((4-(phenyl(p-tolyl)methyl)piperazin-1-yl)methyl)phenyl)ethan-1-ol] | 4.67 ± 1.02 | 2.56 ± 0.32 | 125 to 126 | 32.5 ± 0.65 | 6.14 ± 0.24 | > 50 | strong cytotoxic activities | strong cytotoxic activities | strong cytotoxic activities
OCCc1ccc(CN2CCN(C(c3ccccc3)c3ccc(F)cc3)CC2)cc1 (stereo not drawn) [Compound 7, 2-(4-((4-((4-fluorophenyl)(phenyl)methyl)piperazin-1-yl)methyl)phenyl)ethan-1-ol] | 5.17 ± 0.63 | 1.87 ± 0.22 | 116 to 117 | 38.7 ± 0.83 | 2.17 ± 1.12 | 48.26 ± 0.41 | strong cytotoxic activities | strong cytotoxic activities | strong cytotoxic activities
CC(c1ccccc1)N1CCN(Cc2ccc(CCO)cc2)CC1 (stereo not drawn) [Compound 12, 2-(4-((4-(1-phenylethyl)piperazin-1-yl)methyl)phenyl)ethan-1-ol] | 7.76 ± 0.19 | 13.7 ± 1.12 | 114 to 115 | 68.62 ± 0.38 | 16.3 ± 0.63 | > 50 | – | – | –
COc1ccccc1N1CCN(CC(O)COc2cccc3ccccc23)CC1 (stereo not drawn) [Naftopidil, reference compound] | 22.4 ± 0.61 | 42.1 ± 0.79 | – | – | 34.58 ± 0.31 | > 50 | – | – | –
OCCc1ccc(CN2CCN(Cc3ccccc3)CC2)cc1 [Compound 11, 2-(4-((4-benzylpiperazin-1-yl)methyl)phenyl)ethan-1-ol] | 11.2 ± 0.14 | 20.4 ± 0.48 | 119 to 120 | 65.15 ± 0.57 | 11.3 ± 0.27 | > 50 | – | – | –
Cc1ccc(C(c2ccc(C)cc2)N2CCN(Cc3ccc(CCO)cc3)CC2)cc1 [Compound 5, 2-(4-((4-(di-p-tolylmethyl)piperazin-1-yl)methyl)phenyl)ethan-1-ol] | 3.73 ± 0.58 | 12.1 ± 0.29 | 128 to 129 | 22.7 ± 0.72 | 9.82 ± 0.24 | 37.51 ± 0.37 | – | moderate activity | moderate activity
Cc1ccc(CN2CCN(Cc3ccc(CCO)cc3)CC2)cc1 [Compound 13, 2-(4-((4-(4-methylbenzyl)piperazin-1-yl)methyl)phenyl)ethan-1-ol] | 22.1 ± 0.76 | 15.4 ± 0.42 | 112 to 113 | 64.18 ± 0.45 | 17.2 ± 1.02 | 47.14 ± 0.42 | – | – | –
OCCc1ccc(CN2CCN(Cc3ccc(Cl)cc3)CC2)cc1 [Compound 16, 2-(4-((4-(4-chlorobenzyl)piperazin-1-yl)methyl)phenyl)ethan-1-ol] | 16.4 ± 0.19 | 14.4 ± 0.35 | 109 to 110 | 60.25 ± 0.35 | 31.5 ± 1.21 | > 50 | – | – | –
COc1ccc(CN2CCN(Cc3ccc(CCO)cc3)CC2)cc1 [Compound 14, 2-(4-((4-(4-methoxybenzyl)piperazin-1-yl)methyl)phenyl)ethan-1-ol] | 16.2 ± 0.53 | 11.1 ± 0.67 | 117 to 118 | 58.88 ± 0.23 | 24.1 ± 0.47 | > 50 | – | – | –

From publication PMC9671208, “Synthesis, biological evaluation, and molecular docking of novel hydroxyzine derivatives as potential AR antagonists” (Frontiers in Chemistry, 2022)
